Results published in US20220362394A1, “ANTI-BCMA ANTIBODY CONJUGATES” (SUTRO BIOPHARMA, INC., priority 2019, published 2022).

Test system: MM.1S multiple myeloma cells
Test: Disseminated MM.1S multiple myeloma model
Type: in vivo, NSG mice
Conditions: Example 11
Protocol: Female NOD severe combined immune deficient (SCID) gamma (NSG) mice 8-9 weeks of age were inoculated with 5×10^6 multiple myeloma MM.1S cells into the tail vein. Randomization by body weight and start of treatment was initiated 7 days post tumor inoculation. The treatment groups are outlined in Table 18. All investigational test articles were formulated in 10 mM citrate pH 6.0, 10% sucrose. Groups 1-10 (n=6/group) were monitored for survival endpoint characterized by >20% body weight loss and clinical signs including lethargy, hind limb paralysis or moribundity. Groups 11-20 (n=3/group) were used for bone marrow harvest and analysis of tumor burden on day 28 post tumor cell inoculation. For all groups, body weights were monitored 1-2×/week.
Tumor burden was assessed and quantified by detection of hCD138 positive (hCD138+) cells in the bone marrow. Bone marrow cells from mouse femur and tibia were pooled and assessed for human CD138+ expression using the Alexa Fluor 647 mouse anti-human CD138 clone MI15 (BD Biosciences #562097) according to the manufacturer's protocol. […] Data was analyzed using Flowjo (Tree Star, Inc., Ashland, Oreg.).
Mean survival, survival delay, and tumor burden, during and at the study endpoint, were analyzed using a one-way analysis of variance (ANOVA) with Dunnett's multiple comparison test. […]

Compound	mean survival (0.8 mg/kg q7dx2 IP) [days]	effect on survival compared to vehicle control (3 or 10 mg/kg single IP)
CC(C)C[C@H](NC(=O)[C@H](Cc1ccccc1)NC(=O)c1cnccn1)B(O)O [Velcade]	40.6	
Daratumumab: MM standard of care agent, clinical grade		no significant effect on survival
